In PubChem BioAssay AID2060497 (Molecular Pharmacology Branch, DTP, NCI, 2025):

Test system: 317291-083-R-J1-PDC complex spheroids, viability
Test: Anticancer human tumor 317291-083-R-J1-PDC patient-derived soft tissue sarcoma cell line growth inhibition [GQUAD]
Conditions: for IC50: curve of first compound; for viability, T/C: stronger effect = lower value
Summary of the method: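 Tumor cells were grown as complex spheroids with HUVEC endothelial cells and mesenchymal stem cells as stroma. G-quadruplex stabilizers were combined with targeted agents over half-log dilutions from near the clinical Cmax, or from 10 microM.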

[1] = second compound 0.0316 µM, first compound 0.0316 µM
[2] = second compound 0.0316 µM, first compound 0.316 µM
[3] = second compound 0.1 µM, first compound 0.0316 µM
[4] = second compound 0.1 µM, first compound 0.316 µM
[5] = second compound 0.316 µM, first compound 0.0316 µM
[6] = second compound 0.316 µM, first compound 0.316 µM
[7] = second compound 1 µM, first compound 0.0316 µM
[8] = second compound 1 µM, first compound 0.316 µM
[9] = second compound 3.16 µM, first compound 0.0316 µM
[10] = second compound 3.16 µM, first compound 0.316 µM
[11] = second compound 10 µM, first compound 0.0316 µM
[12] = second compound 10 µM, first compound 0.316 µM
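Note: spheroids exposed to compounds for one week before readout.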
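Throughout, for viability, T/C: percent viability relative to DMSO vehicle wells taken as 100%.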

**Q.** `CC(C)(O)C1CCC(Nc2ccc3ncc(-c4cccc(C(F)(F)F)c4)n3n2)CC1` (centres undefined) + Cc1cnc(CNC(=O)c2c(=O)c3ccc(N4CCCN(C)CC4)nc3n3c2sc2ccccc23)cn1 was tested. Which IC50 (second compound 0.0316 µM) did it give?
**A.** 507 nM

**Q.** What about the IC50 (second compound 0.1 µM) of the same compound?
**A.** 342 nM

**Q.** What about the IC50 (second compound 0.316 µM) of the same compound?
**A.** 91.4 nM

**Q.** And the IC50 (second compound 1 µM)?
**A.** < 31.6 nM

**Q.** And the IC50 (second compound 3.16 µM)?
**A.** < 31.6 nM

**Q.** What about the IC50 (second compound 10 µM) of the same compound?
**A.** < 31.6 nM

**Q.** And the viability, T/C [1]?
**A.** 87.8%

**Q.** What about the viability, T/C (second compound 0.0316 µM, first compound 0.1 µM) of the same compound?
**A.** 76.5%

**Q.** What about the viability, T/C [2] of the same compound?
**A.** 72.1%

**Q.** What about the viability, T/C (second compound 0.0316 µM, first compound 1 µM) of the same compound?
**A.** 19%

**Q.** What about the viability, T/C (second compound 0.0316 µM, first compound 3.16 µM) of the same compound?
**A.** 0.22%

**Q.** What about the viability, T/C (second compound 0.0316 µM, first compound 10 µM) of the same compound?
**A.** 0.45%

**Q.** What about the viability, T/C [3] of the same compound?
**A.** 58.2%

**Q.** What about the viability, T/C (second compound 0.1 µM, first compound 0.1 µM) of the same compound?
**A.** 60%

**Q.** What about the viability, T/C [4] of the same compound?
**A.** 49.1%

**Q.** What about the viability, T/C (second compound 0.1 µM, first compound 1 µM) of the same compound?
**A.** 28%

**Q.** What about the viability, T/C (second compound 0.1 µM, first compound 3.16 µM) of the same compound?
**A.** 0.24%

**Q.** What about the viability, T/C (second compound 0.1 µM, first compound 10 µM) of the same compound?
**A.** 1.34%

**Q.** And the viability, T/C [5]?
**A.** 72.8%

**Q.** And the viability, T/C (second compound 0.316 µM, first compound 0.1 µM)?
**A.** 37.8%

**Q.** And the viability, T/C [6]?
**A.** 37.8%

**Q.** What about the viability, T/C (second compound 0.316 µM, first compound 1 µM) of the same compound?
**A.** 24.8%

**Q.** And the viability, T/C (second compound 0.316 µM, first compound 3.16 µM)?
**A.** 1.74%

**Q.** And the viability, T/C (second compound 0.316 µM, first compound 10 µM)?
**A.** 2.26%

**Q.** What about the viability, T/C [7] of the same compound?
**A.** 30.8%

**Q.** And the viability, T/C (second compound 1 µM, first compound 0.1 µM)?
**A.** 19.5%

**Q.** What about the viability, T/C [8] of the same compound?
**A.** 16%

**Q.** What about the viability, T/C (second compound 1 µM, first compound 1 µM) of the same compound?
**A.** 25.2%

**Q.** And the viability, T/C (second compound 1 µM, first compound 3.16 µM)?
**A.** 0.05%

**Q.** What about the viability, T/C (second compound 1 µM, first compound 10 µM) of the same compound?
**A.** 0.07%

**Q.** And the viability, T/C [9]?
**A.** 13.3%

**Q.** What about the viability, T/C (second compound 3.16 µM, first compound 0.1 µM) of the same compound?
**A.** 14.7%

**Q.** What about the viability, T/C [10] of the same compound?
**A.** 8.5%

**Q.** And the viability, T/C (second compound 3.16 µM, first compound 1 µM)?
**A.** 0.54%

**Q.** What about the viability, T/C (second compound 3.16 µM, first compound 3.16 µM) of the same compound?
**A.** 0.12%

**Q.** And the viability, T/C (second compound 3.16 µM, first compound 10 µM)?
**A.** 0.16%

**Q.** And the viability, T/C [11]?
**A.** 1.34%

**Q.** And the viability, T/C (second compound 10 µM, first compound 0.1 µM)?
**A.** 0.11%

**Q.** What about the viability, T/C [12] of the same compound?
**A.** 0.17%

**Q.** And the viability, T/C (second compound 10 µM, first compound 1 µM)?
**A.** 0.12%

**Q.** And the viability, T/C (second compound 10 µM, first compound 3.16 µM)?
**A.** 0.21%

**Q.** And the viability, T/C (second compound 10 µM, first compound 10 µM)?
**A.** 0.22%

**Q.** `Cc1[nH]c2ccccc2c1CCNCc1ccc(/C=C/C(=O)NO)cc1` + Cc1[nH]c2ccc(F)cc2c1-c1nc2c3cccnc3c3ncccc3c2[nH]1 was tested. Which IC50 (second compound 0.0316 µM) did it give?
**A.** 43.4 nM

**Q.** And the IC50 (second compound 0.1 µM)?
**A.** 48.1 nM

**Q.** And the IC50 (second compound 0.316 µM)?
**A.** 12.1 nM

**Q.** And the IC50 (second compound 1 µM)?
**A.** 4.07 nM

**Q.** What about the IC50 (second compound 3.16 µM) of the same compound?
**A.** 1.08 nM

**Q.** And the IC50 (second compound 10 µM)?
**A.** < 0.999 nM

**Q.** What about the viability, T/C (second compound 0.0316 µM, first compound 0.000999 µM) of the same compound?
**A.** 114%

**Q.** What about the viability, T/C (second compound 0.0316 µM, first compound 0.00316 µM) of the same compound?
**A.** 96.7%

**Q.** And the viability, T/C (second compound 0.0316 µM, first compound 0.00999 µM)?
**A.** 96.9%

**Q.** And the viability, T/C [1]?
**A.** 67%

**Q.** What about the viability, T/C (second compound 0.0316 µM, first compound 0.0999 µM) of the same compound?
**A.** 6.7%

**Q.** And the viability, T/C [2]?
**A.** 0.62%

**Q.** And the viability, T/C (second compound 0.1 µM, first compound 0.000999 µM)?
**A.** 93.4%

**Q.** What about the viability, T/C (second compound 0.1 µM, first compound 0.00316 µM) of the same compound?
**A.** 93.3%

**Q.** What about the viability, T/C (second compound 0.1 µM, first compound 0.00999 µM) of the same compound?
**A.** 85.2%

**Q.** What about the viability, T/C [3] of the same compound?
**A.** 74%

**Q.** What about the viability, T/C (second compound 0.1 µM, first compound 0.0999 µM) of the same compound?
**A.** 8.53%

**Q.** What about the viability, T/C [4] of the same compound?
**A.** 0.12%

**Q.** And the viability, T/C (second compound 0.316 µM, first compound 0.000999 µM)?
**A.** 73.3%

**Q.** What about the viability, T/C (second compound 0.316 µM, first compound 0.00316 µM) of the same compound?
**A.** 68.5%

**Q.** What about the viability, T/C (second compound 0.316 µM, first compound 0.00999 µM) of the same compound?
**A.** 53.9%

**Q.** What about the viability, T/C [5] of the same compound?
**A.** 28.9%

**Q.** What about the viability, T/C (second compound 0.316 µM, first compound 0.0999 µM) of the same compound?
**A.** 6.05%

**Q.** What about the viability, T/C [6] of the same compound?
**A.** 0.16%

**Q.** What about the viability, T/C (second compound 1 µM, first compound 0.000999 µM) of the same compound?
**A.** 59.9%

**Q.** And the viability, T/C (second compound 1 µM, first compound 0.00316 µM)?
**A.** 51%

**Q.** What about the viability, T/C (second compound 1 µM, first compound 0.00999 µM) of the same compound?
**A.** 39.7%

**Q.** And the viability, T/C [7]?
**A.** 15.5%

**Q.** What about the viability, T/C (second compound 1 µM, first compound 0.0999 µM) of the same compound?
**A.** 3.36%

**Q.** And the viability, T/C [8]?
**A.** 0.14%

**Q.** What about the viability, T/C (second compound 3.16 µM, first compound 0.000999 µM) of the same compound?
**A.** 51.5%

**Q.** And the viability, T/C (second compound 3.16 µM, first compound 0.00316 µM)?
**A.** 39%

**Q.** And the viability, T/C (second compound 3.16 µM, first compound 0.00999 µM)?
**A.** 19.9%

**Q.** And the viability, T/C [9]?
**A.** 27.9%

**Q.** And the viability, T/C (second compound 3.16 µM, first compound 0.0999 µM)?
**A.** 1.59%

**Q.** And the viability, T/C [10]?
**A.** 0.17%

**Q.** What about the viability, T/C (second compound 10 µM, first compound 0.000999 µM) of the same compound?
**A.** 48.7%

**Q.** And the viability, T/C (second compound 10 µM, first compound 0.00316 µM)?
**A.** 49%

**Q.** And the viability, T/C (second compound 10 µM, first compound 0.00999 µM)?
**A.** 51.4%

**Q.** And the viability, T/C [11]?
**A.** 13.5%

**Q.** What about the viability, T/C (second compound 10 µM, first compound 0.0999 µM) of the same compound?
**A.** 3.62%

**Q.** What about the viability, T/C [12] of the same compound?
**A.** 0.24%
